Patent US20200246323A1, “Antibody Drug Conjugates with Cell Permeable BCL-XL Inhibitors” (AbbVie Inc., priority 2014, published 2020)
Where two headings read alike, the source gives them in different places. Marks after values point to notes of the source that are not given here.

How the values were obtained:
circulating platelets [1] = conditions: SCID/bg, mouse, in vivo, po, 100 mg/kg
GST-Bcl-xL = GST-Bcl-xL (Homo sapiens, UniProt Q07817); assay: TR-FRET Bcl-xL binding assay (competition with probe F-Bak)
Experimental: Tb-anti-GST antibody was purchased from Invitrogen (Catalog No. PV4216).
For the assay, test compounds were serially diluted in DMSO starting at 50 μM (2× starting concentration; 10% DMSO) and 10 μL transferred into a 384-well plate. 10 μL of a protein/probe/antibody mix was then added to each well at final concentrations listed below:
The samples were then mixed on a shaker for 1 minute and incubated for an additional 2 hours at room temperature. For each assay plate, a probe/antibody and protein/antibody/probe mixture were included as a negative and a positive control, respectively. Fluorescence was measured on the Envision (Perkin Elmer) using a 340/35 nm excitation filter and 520/525 (F-Bak) and 495/510 nm (Tb-labeled anti-his antibody) emission filters. Dissociation constants (Ki) were determined using Wang's equation (Wang, 1995, FEBS Lett. 360:111-114). The TR-FRET assay can be performed in the presence of varying concentrations of human serum (HS) or fetal bovine serum (FBS). Compounds were tested both without HS and in the presence of 1% HS.

[2] = system: Molt-4 human acute lymphoblastic leukemia cells; assay: Molt-4 cell viability assay (CellTiter-Glo, 48 hours); assay type: cell-based; conditions: 10% human serum, read-out: Molt-4 Viability EC50 (nM, 10% HS)
Source text: The ability of exemplary Bcl-xL inhibitors can be determined in cell-based killing assays using a variety of cell lines and mouse tumor models. For example, their activity on cell viability can be assessed on a panel of cultured tumorigenic and non-tumorigenic cell lines, as well as primary mouse or human cell populations. Bcl-xL inhibitory activity of exemplary Bcl-xL inhibitors was confirmed in a cell viability assay with Molt-4 cells.
In one exemplary set of conditions, Molt-4 (ATCC, Manassas, Va.) human acute lymphoblastic leukemia cells were plated 12,500 cells per well in 384-well tissue culture plates (Corning, Corning, N.Y.) in a total volume of 25 μL tissue culture medium supplemented with 10% human serum (Sigma-Aldrich, St. Louis, Mo.) and treated with a 3-fold serial dilution of the compounds of interest from 10 μM to 0.0005 μM. Each concentration was tested in duplicate at least 3 separate times. The number of viable cells following 48 hours of compound treatment was determined using the CellTiter-Glo Luminescent Cell Viability Assay according to the manufacturer's recommendations (Promega Corp., Madison, Wis.). Compounds were tested in the presence of 10% HS.

NCI-H1963.FP5 xenografts = assay: Inhibition of H1963.FP5 xenograft tumor growth; assay type: in vivo, mouse; conditions: Table 15; 50 mg/kg/day PO QDx21
NCI-H146 xenografts = assay: Inhibition of H146 xenograft tumor growth; assay type: in vivo, mouse; conditions: Table 14; 50 mg/kg/day PO QDx21
NCI-H1650 xenografts = assay: Inhibition of H1650 xenograft tumor growth; assay type: in vivo, mouse; conditions: Table 9
EBC-1 xenografts = assay: Inhibition of EBC-1 xenograft tumor growth; assay type: in vivo, mouse; conditions: Table 13, 7.5 mg/kg/day IV QDx1
circulating platelets [3] = assay: Number of circulating platelets in mice after a single dose; conditions: for Lowest thrombocyte count / Time to lowest count: SCID/bg mice
[4] = in the presence of 1% human serum, read-out: Bcl-xL Binding Ki (nM, 1% HS)
[5] = without HS, read-out: Bcl-xL Binding Ki
[6] = 25 mg/kg/day PO QDx14, 25 mg/kg/day
[7] = single dose 0.61 mg/kg, intravenous

GST-Bcl-xL, sequence (Q07817 whole entry): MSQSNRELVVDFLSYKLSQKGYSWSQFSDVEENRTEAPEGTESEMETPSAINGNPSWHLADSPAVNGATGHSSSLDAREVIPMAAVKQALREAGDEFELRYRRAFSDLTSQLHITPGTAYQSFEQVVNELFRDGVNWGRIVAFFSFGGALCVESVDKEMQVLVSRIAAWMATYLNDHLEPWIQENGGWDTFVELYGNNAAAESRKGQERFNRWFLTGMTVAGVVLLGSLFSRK

CC1(C)CCC(c2ccc(Cl)cc2)=C(CN2CCN(c3ccc(C(=O)NS(=O)(=O)c4ccc(N[C@H](CCN5CCOCC5)CSc5ccccc5)c(S(=O)(=O)C(F)(F)F)c4)cc3)CC2)C1 [ABT-263, Navitoclax]
Time to lowest count (circulating platelets [1]): 6 h | Lowest thrombocyte count (circulating platelets [1]; 6 h): 10 1/10^3 of the platelet#/mm^3

CNCCOCCOCCOC12CC3(C)CC(C)(CC(Cn4ncc(-c5ccc(N6CCc7cccc(C(=O)Nc8nc9ccccc9s8)c7C6)nc5C(=O)O)c4C)(C3)C1)C2 [Example 1.2, 6-[8-(1,3-benzothiazol-2-ylcarbamoyl)-3,4-dihydroisoquinolin-2(1H)-yl]-3-(1-({[(1r,3R,5S,7s)-3,5-dimethyl-7-(2-(2-[2-(methylamino)ethoxy]ethoxy}ethoxy)tricyclo[3.3.1.1^3,7]dec-1-yl]methyl)-5-methyl-1H-pyrazol-4-yl)pyridine-2-carboxylic acid]
Ki (GST-Bcl-xL; [4]): 0.51 nM | Ki (GST-Bcl-xL; [5]): 0.04 nM | EC50 [2]: 5.4 nM

Cc1c(-c2ccc(N3CCc4cccc(C(=O)Nc5nc6ccccc6s5)c4C3)nc2C(=O)O)cnn1CC12CC3(C)CC(C)(C1)CC(OCCOCCN)(C3)C2 [Example 1.4, 3-[1-({3-[2-(2-aminoethoxy)ethoxy]-5,7-dimethyltricyclo[3.3.1.1^3,7]dec-1-yl}methyl)-5-methyl-1H-pyrazol-4-yl]-6-[8-(1,3-benzothiazol-2-ylcarbamoyl)-3,4-dihydroisoquinolin-2(1H)yl]pyridine-2-carboxylic acid]
Ki (GST-Bcl-xL; [4]): 0.24 nM | Ki (GST-Bcl-xL; [5]): 0.01 nM | EC50 [2]: 12.1 nM

Cc1c(-c2ccc(N3CCc4cccc(C(=O)Nc5nc6ccccc6s5)c4C3)nc2C(=O)O)cnn1CC12CC3(C)CC(C)(C1)CC(OCCN)(C3)C2 [Example 1.3, 3-(1-{[3-(2-aminoethoxy)-5,7-dimethyltricyclo[3.3.1.1^3,7]dec-1-yl]methyl}-5-methyl-1H-pyrazol-4-yl)-6-[8-(1,3-benzothiazol-2-ylcarbamoyl)-3,4-dihydroisoquinolin-2(1H)yl]pyridine-2-carboxylic acid]
Ki (GST-Bcl-xL; [4]): 0.097 nM | Ki (GST-Bcl-xL; [5]): < 0.001 nM | EC50 [2]: 6.6 nM

COCCNCCOC12CC3(C)CC(C)(CC(Cn4ncc(-c5ccc(N6CCc7cccc(C(=O)Nc8nc9ccccc9s8)c7C6)nc5C(=O)O)c4C)(C3)C1)C2 [Example 1.5, 6-[8-(1,3-benzothiazol-2-ylcarbamoyl)-3,4-dihydroisoquinolin-2(1H)-yl]-3-(1-[(3-{2-[(2-methoxyethyl)amino]ethoxy}-5,7-dimethyltricyclo[3.3.1.1^3,7]dec-1-yl)methyl]-5-methyl-1H-pyrazol-4-yl)pyridine-2-carboxylic acid]
Ki (GST-Bcl-xL; [4]): 0.078 nM | Ki (GST-Bcl-xL; [5]): < 0.001 nM | EC50 [2]: 1.85 nM

CC1(C)CCC(CN2CCN(c3ccc(C(=O)NS(=O)(=O)c4ccc(NCC5CCOCC5)c([N+](=O)[O-])c4)c(Oc4cnc5[nH]ccc5c4)c3)CC2)=C(c2ccc(Cl)cc2)C1 [ABT-199]
Growth Inhibition TGD (%) (NCI-H1963.FP5 xenografts): 22* % | Growth Inhibition TGImax (%) (NCI-H1963.FP5 xenografts): 50* % | Response Frequency CR (%) (NCI-H1963.FP5 xenografts): 0% | Response Frequency OR (%) (NCI-H1963.FP5 xenografts): 0% | Response Frequency PR (%) (NCI-H1963.FP5 xenografts): 0% | Growth Inhibition TGD (%) (NCI-H146 xenografts): 48* % | Growth Inhibition TGImax (%) (NCI-H146 xenografts): 75* % | Response Frequency CR (%) (NCI-H146 xenografts): 0% | Response Frequency OR (%) (NCI-H146 xenografts): 0% | Response Frequency PR (%) (NCI-H146 xenografts): 0%

Cc1c(-c2ccc(N3CCc4c(F)ccc(C(=O)Nc5nc6ccccc6s5)c4C3)nc2C(=O)O)cnn1CC12CC3(C)CC(C)(C1)CC(OCCN)(C3)C2 [Example 1.6, 3-(1-{[3-(2-aminoethoxy)-5,7-dimethyltricyclo[3.3.1.1^3,7]dec-1-yl]methyl}-5-methyl-1H-pyrazol-4-yl)-6-[8-(1,3-benzothiazol-2-ylcarbamoyl)-5-fluoro-3,4-dihydroisoquinolin-2(1H)-yl]pyridine-2-carboxylic acid]
Ki (GST-Bcl-xL; [4]): 0.62 nM | Ki (GST-Bcl-xL; [5]): 0.019 nM | EC50 [2]: 47 nM

Cc1c(-c2ccc(N3CCc4ccc(F)c(C(=O)Nc5nc6ccccc6s5)c4C3)nc2C(=O)O)cnn1CC12CC3(C)CC(C)(C1)CC(OCCN)(C3)C2 [Example 1.8, 3-(1-{[3-(2-aminoethoxy)-5,7-dimethyltricyclo[3.3.1.1^3′ ]dec-1-yl]methyl}-5-methyl-1H-pyrazol-4-yl)-6-[8-(1,3-benzothiazol-2-ylcarbamoyl)-7-fluoro-3,4-dihydroisoquinolin-2(1H)-yl]pyridine-2-carboxylic acid]
Ki (GST-Bcl-xL; [4]): 17 nM | Ki (GST-Bcl-xL; [5]): 0.1 nM

CC(=O)O[C@@]12CO[C@@H]1C[C@H](O)[C@@]1(C)C(=O)[C@H](O)C3=C(C)[C@@H](OC(=O)[C@H](O)[C@@H](NC(=O)OC(C)(C)C)c4ccccc4)C[C@@](O)([C@@H](OC(=O)c4ccccc4)[C@H]21)C3(C)C [DTX, docetaxel]
Growth Inhibition TGD (%) (NCI-H1650 xenografts; 7.5 mg/kg/day IV QDx1): 94* % | Growth Inhibition TGImax (%) (NCI-H1650 xenografts; 7.5 mg/kg/day IV QDx1): 73* % | Response Frequency CR (%) (NCI-H1650 xenografts; 7.5 mg/kg/day IV QDx1): 0% | Response Frequency OR (%) (NCI-H1650 xenografts; 7.5 mg/kg/day IV QDx1): 0% | Response Frequency PR (%) (NCI-H1650 xenografts; 7.5 mg/kg/day IV QDx1): 0% | Response Frequency CR (%) (EBC-1 xenografts): 0% | Response Frequency OR (%) (EBC-1 xenografts): 0% | Response Frequency PR (%) (EBC-1 xenografts): 0% | Growth Inhibition TGD (%) (EBC-1 xenografts; 7.5 mg/kg/day): 44% | Growth Inhibition TGImax (%) (EBC-1 xenografts; 7.5 mg/kg/day): 76%

Cc1c(-c2ccc(N3CCc4cccc(C(=O)Nc5nc6ccccc6s5)c4C3)nc2C(=O)O)cnn1CC12CC3CC(CC(C3)C1)C2 [Example A-1331852]
Response Frequency CR (%) (NCI-H1650 xenografts; 25 mg/kg/day PO QDx14): 0% | Response Frequency OR (%) (NCI-H1650 xenografts; 25 mg/kg/day PO QDx14): 0% | Response Frequency PR (%) (NCI-H1650 xenografts; 25 mg/kg/day PO QDx14): 0% | Growth Inhibition TGD (%) (NCI-H1650 xenografts; [6]): 78% | Growth Inhibition TGImax (%) (NCI-H1650 xenografts; [6]): 57% | Lowest thrombocyte count (circulating platelets [3]; single dose 25 mg/kg, oral): 9 1/10^3 of the platelet#/mm^3 | Time to lowest count (circulating platelets [3]; single dose 25 mg/kg, oral): 6 h

CNCCOC12CC3(C)CC(C)(CC(Cn4ncc(-c5ccc(N6CCc7cccc(C(=O)Nc8nc9ccccc9s8)c7C6)nc5C(=O)O)c4C)(C3)C1)C2 [Example 1.1]
Ki (GST-Bcl-xL; [4]): 0.39 nM | Ki (GST-Bcl-xL; [5]): 0.0029 nM | Decrease of the platelet number from normal count (circulating platelets [3]; dose of 0.61 mg/kg): 100 fold | Lowest thrombocyte count (circulating platelets [3]; [7]): 6 1/10^3 of the platelet#/mm^3 | Time to lowest count (circulating platelets [3]; [7]): 6 h | EC50 [2]: 7.8 nM

Cc1c(-c2ccc(N3CCc4cc(F)cc(C(=O)Nc5nc6ccccc6s5)c4C3)nc2C(=O)O)cnn1CC12CC3(C)CC(C)(C1)CC(OCCN)(C3)C2 [Example 1.7, 3-(1-{[3-(2-aminoethoxy)-5,7-dimethyltricyclo[3.3.1.1^3,7]dec-1-yl]methyl}-5-methyl-1H-pyrazol-4-yl)-6-[8-(1,3-benzothiazol-2-ylcarbamoyl)-6-fluoro-3,4-dihydroisoquinolin-2(1H)-yl]pyridine-2-carboxylic acid]
Ki (GST-Bcl-xL; [4]): 0.094 nM | Ki (GST-Bcl-xL; [5]): 0.011 nM | EC50 [2]: 4 nM
